Test results published in patent US20080234629A1, “WATER ELECTROLYSIS TO FACILITATE DRUG DELIVERY BY IONTOPHORESIS” (priority 2007, published 2008).

Assay: Solubility of acyclovir in the aqueous portion of the formulation, from propylene glycol/water solubility measurements
Assay type: physicochemical
Conditions: estimated from propylene glycol/water solubility measurements
Text: Assuming that the electrolysis is 100% efficient, the expected proton generation is […] (0.4 mA×600 sec×6.2×10^18, coulomb, ÷[…]; assuming each electron generate one proton). Thus the electrolysis of water provides enough protons to ionize the soluble portion of the dose. Since the current density in the invented system is typical for iontophoresis, the rate of proton generation in this system can be realized in other iontophoretic systems. Because the coulombic dose in this iontophoretic system is at the low end of iontophoretic doses, larger quantities of protons could be generated for use in other applications.

- solubility of acyclovir in the aqueous portion of the formulation: ~0.3 % by weight
Compound: Nc1nc2c(ncn2COCCO)c(=O)[nH]1 [Acyclovir]
